# Data published in the NIST ThermoML archive (doi:10.1016/j.jct.2010.11.013).
# ± gives the expanded uncertainty stated by the source.
# How the values were obtained:
# [1] = refractive index (Na D-line) (dimensionless); settings: 298.15 K; 101.33 kPa; Liquid; Standard Abbe refractometry
# [2] = 298.15 K; 101.33 kPa; Liquid; Vibrating tube method
refractive index [1],mass density [2],SMILES
1.4791 ± 0.0007,1237.23 ± 0.43 kg/m3,CCOS(=O)(=O)[O-].CCn1cc[n+](C)c1 [1-ethyl-3-methylimidazolium ethyl sulfate]
1.39519 ± 0.00068,698.6 ± 0.18 kg/m3,CCCCCCCC [octane]
1.38515 ± 0.00068,679.56 ± 0.19 kg/m3,CCCCCCC [heptane]
1.37234 ± 0.0007,655.19 ± 0.26 kg/m3,CCCCCC [hexane]
1.40326 ± 0.0007,713.99 ± 0.25 kg/m3,CCCCCCCCC [nonane]

SMILES,refractive index [1],mass density [2]
Cc1ccccc1 [toluene],1.49399 ± 0.00068,862.17 ± 0.11 kg/m3
